The record followed here is patent US10517842B2, “Methods of modulating miRNA levels and compositions for use in the same” (Los Angeles Biomedical Research Institute at Harbor-UCLA …, priority 2017, dated 2019).

Each structure is given as a SMILES string.

Holding throughout (format): cell-based, human
For assay [1], the system named is DNMT1. As to the kind of experiment: Immunoblotting, protein expression in LSMC. The conditions noted are these: Tranilast 200 μM, 48 h, Western blot, P<0.05. Here is the method:
(§1) Total protein isolated from LSMC treated with Tranilast (200 μM) at sub-confluence for 48 hrs and from tissues was subjected to immunoblotting as previously described (Chuang et al., “miR-29c induction contributes to downregulation of vascular extracellular matrix proteins by glucocorticoids,” American journal of physiology Cell physiology (2015) 309:C117-25). Specific antibodies generated against CCND1, COL3A1, TGF-β3 (Proteintech Group, Inc., Chicago, Ill.), CDK2, DNMT1 (Santa Cruz Biotechnology, Dallas, Tex.), COL1 (Fitzgerald Industries Intl., Acton, Mass.) and EZH2 (Cell Signaling Technology, Danvers, Mass.) were used to detect specific protein expression. The membranes were also stripped and probed with GAPDH antibody (Proteintech Group, Inc.) serving as loading control.
(In general: In western blotting, separated proteins are transferred to a membrane and probed.)

The test system of assay [2] is COL1. The experiment in a line: Immunoblotting, protein expression in LSMC. The conditions noted are these: Tranilast 200 μM, 48 h, Western blot, P<0.05. Here is the method:
as §1

Assay [3] relates to CDK2. As to the kind of experiment: Immunoblotting, protein expression in LSMC. The conditions noted are these: Tranilast 200 μM, 48 h, Western blot, P<0.05. The procedure: as §1
For assay [4], the system named is TGF-β3. As to the kind of experiment: Immunoblotting, protein expression in LSMC. To be noted: Tranilast 200 μM, 48 h, Western blot, P<0.05. The procedure:
as §1

Assay [5] concerns EZH2. The experiment in a line: Immunoblotting, protein expression in LSMC. The conditions noted are these: Tranilast 200 μM, 48 h, Western blot, P<0.05. Here is the method:
as §1

Assay [6] has as its system CCND1. The experiment in a line: Immunoblotting, protein expression in LSMC. The conditions noted are these: Tranilast 200 μM, 48 h, Western blot, P<0.05. The procedure: as §1
Assay [7] has as its system COL3A1. As to the kind of experiment: Immunoblotting, protein expression in LSMC. The conditions noted are these: Tranilast 200 μM, 48 h, Western blot, P<0.05. Here is the method:
as §1

In assay [8] the test system is leiomyoma smooth muscle cells (LSMC). The experiment in a line: Cell proliferation assay (MTT). The conditions noted are these: Tranilast 100 to 400 μM, 48 hrs, dose-dependent, p<0.05. The source says:
Leiomyomas and matched myometrium (N=12) were collected from patients scheduled to undergo hysterectomy at Harbor-UCLA Medical Center with prior approval from Institutional Review Board (#036247). The tissues were either snap frozen and stored in liquid nitrogen for further analysis, or used for isolation of LSMC as previously described (Chuang et al., “miR-200c is aberrantly expressed in leiomyomas in an ethnic-dependent manner and targets ZEBs, VEGFA, TIMP2, and FBLN5,” Endocrine-related cancer (2012)19:541-56; Chuang et al., “miR-93/106b and their host gene, MCM7, are differentially expressed in leiomyomas and functionally target F3 and IL-8. Molecular endocrinology,” (2012) 26:1028-42). Briefly, LSMC were cultured in DMEM supplemented with 10% fetal bovine serum until reaching confluence with a change of media every 2-3 days. […]
LSMC were seeded at 1000 cells/well in 96-well plates and cultured for 48 hrs. […] The rate of cell proliferation was determined using the MTT assay and cells were photographed as previously described (Chuang & Khorram, “Mechanisms underlying aberrant expression of miR-29c in uterine leiomyoma,” Fertility and sterility (2016)105:236-45.e1; Chuang et al., “The Regulatory Function of miR-200c on Inflammatory and Cell-Cycle Associated Genes in SK-LMS-1, A Leiomyosarcoma Cell Line,” Reproductive sciences (2015) 22:563-71). […]

The test system of assay [9] is NF-Kb (p65) binding elements in the miR-200c promoter. As to the kind of experiment: CHIP assay, p65 binding in the miR-200c promoter in LSMC. The conditions noted are these: Tranilast 200 μM, 48 hrs, percent input method.
Assay [10] has as its system DNMT1. The experiment in a line: Quantitative RT-PCR, mRNA expression in LSMC. To be noted: Tranilast 200 μM vs DMSO, 12 h to 48 h, P<0.05. Here is the method: (§2) Total RNA was extracted from LSMC using RNAzol (GeneCopoeia, Rockville, Md.) and their quantity and quality was determined (ND-1000 Spectrophotometer, NanoDrop Technologies, Wilmington, Del.) as previously described (Chuang & Khorram, “miR-200c Regulates IL8 Expression by Targeting IKBKB: A Potential Mediator of Inflammation in Leiomyoma Pathogenesis,” PloS one (2014) 9:e95370). For medium miRNA extraction, 5 pg of synthetic miR-1 from Caenorhabditis elegans (cel-miR-1) was added as a spike-in control for purification efficiency. Subsequently, 2 μg or 10 ng (for miRNA) was reverse transcribed using random primers for CCND1, CDK2, COL1A1, COL3A1, TGF-β3, DNMT1 and EZH2 or specific primers for miR-29c and miR-200c according to the manufacturer's guidelines (Applied Biosystems, Carlsbad, Calif.). Quantitative RT-PCR was carried out using SYBR gene expression master mix or TaqMan miRNA expression assays (Applied Biosystems). Reactions were incubated for 10 min at 95° C. followed by 40 cycles for 15 seconds at 95° C. and 1 min at 60° C. The level of mRNAs and expression of cellular and secreted miRNA was determined using the Invitrogen StepOne System with 18S, RNU6B and cel-miR-1 used for normalization respectively. All reactions were run in triplicate and relative expression was analyzed with the comparative cycle threshold method (2^−ΔΔCT) according to the manufacturer (Applied Biosystems). Values were expressed as fold change compared to the control group.

In assay [11] the test system is COL1. The experiment in a line: Quantitative RT-PCR, mRNA expression in LSMC. To be noted: Tranilast 200 μM vs DMSO, 12 h to 48 h, P<0.05. Here is the method:
as §2

In assay [12] the test system is CDK2. As to the kind of experiment: Quantitative RT-PCR, mRNA expression in LSMC. The conditions noted are these: Tranilast 200 μM vs DMSO, 12 h to 48 h, P<0.05. Here is the method:
as §2

The test system of assay [13] is TGF-β3. As to the kind of experiment: Quantitative RT-PCR, mRNA expression in LSMC. The conditions noted are these: Tranilast 200 μM vs DMSO, 12 h to 48 h, P<0.05. Here is the method: as §2
Assay [14] has as its system EZH2. The experiment in a line: Quantitative RT-PCR, mRNA expression in LSMC. To be noted: Tranilast 200 μM vs DMSO, 12 h to 48 h, P<0.05. The procedure:
as §2

Assay [15] deals with CCND1. As to the kind of experiment: Quantitative RT-PCR, mRNA expression in LSMC. The conditions noted are these: Tranilast 200 μM vs DMSO, 12 h to 48 h, P<0.05. Here is the method: as §2
The test system of assay [16] is COL3A1. As to the kind of experiment: Quantitative RT-PCR, mRNA expression in LSMC. To be noted: Tranilast 200 μM vs DMSO, 12 h to 48 h, P<0.05. The procedure:
as §2

As to `COc1ccc(C=CC(=O)Nc2ccccc2C(=O)O)cc1OC` [Tranilast, 2-[[3-(3,4-dimethoxyphenyl)-1-oxo-2-propenyl]amino]benzoic acid], the “DNMT1 expression, protein level” value in the assay on DNMT1 [1] is “significantly inhibited”. In the assay on COL1 [2], the “COL1 expression, protein level” value is given as “significantly inhibited”. In addition, in the assay with CDK2 [3], the “CDK2 expression, protein level” value is recorded as “significantly inhibited”. The “TGF-β3 expression, protein level” value in the assay on TGF-β3 [4] is listed as “significantly inhibited”. Moreover, the “EZH2 expression, protein level” value in the assay with EZH2 [5] was “significantly inhibited”. For the same molecule, in the assay on CCND1 [6], the “CCND1 expression, protein level” value was “significantly inhibited”. Further, the “COL3A1 expression, protein level” value in the assay with COL3A1 [7] is “significantly inhibited”. Also, in assay [8], the “rate of LSMC cell proliferation” value was “significantly inhibited”. Moreover, the “p65 binding ability in miR-200c promoter” value in assay [9] was “decreased”. In the assay on DNMT1 [10], the “DNMT1 expression, mRNA level” value was “significantly inhibited”. Also, the “COL1 expression, mRNA level” value in the assay with COL1 [11] was “significantly inhibited”. Moreover, the “CDK2 expression, mRNA level” value in the assay on CDK2 [12] is on record as “significantly inhibited”. Besides, the “TGF-β3 expression, mRNA level” value in the assay on TGF-β3 [13] is “significantly inhibited”. In addition, the “EZH2 expression, mRNA level” value in the assay on EZH2 [14] is on record as “significantly inhibited”. Further, the “CCND1 expression, mRNA level” value with CCND1 [15] is reported as “significantly inhibited”. For the same molecule, the “COL3A1 expression, mRNA level” value with COL3A1 [16] is listed as “significantly inhibited”.
